Literature values, collected in patent publication US7772207B2, “Combination of a CDK inhibitor and CS-682 or a metabolite thereof” (Cyclacel Limited, priority 2003, dated 2010).

Columns and labels:
[1] = phase I, patients with a variety of cancers

CCCCCCCCCCCCCCCC(=O)Nc1ccn([C@@H]2O[C@H](CO)[C@@H](O)[C@@H]2C#N)c(=O)n1 [(I), 1-(2-C-cyano-2-dioxy-β-D-arabino-pentofuranosyl)-N^4-palmitoyl cytosine]
anticancer activity (colon cancer; model of colon cancer): strong anticancer activity
increasing survival and preventing the spread of colon cancer metastases to the liver, compared with gemcitabine or 5-FU (colon cancer; same model of colon cancer): superior to either gemcitabine or 5-FU
dose limiting toxicity [1]: myelosuppression
tolerability [1]: well tolerated
